The source of these data is patent US8785399B2, “Antibacterial peptides” (Spiderbiotech S.R.A., priority 2008, dated 2014).

In brackets after ≈: the same amount, converted by molar mass. Positions of bridges follow the written chain, without caps; N, C: chain ends. Non-standard residues stand in square brackets, D forms with d. Residues, ends and D or L forms follow the SMILES beside them. Chains are numbered I, II in the order given. βAla = NCCC(=O)O

The test system of one data set is E. coli ATCC 25922. Briefly: MIC by broth microdilution, E. coli reference strain. It counts as cell-based, Escherichia coli. The procedure:
(§1) Determination of MIC. MICs were determined in MHB by the broth microdilution methodology, according to CLSI procedure (formerly NCCLS, Ref. 11) by using final bacterial inocula of 1-5×10^5 CFU/mL. Assays were performed in sterile 96-well microtiter plates with round bottom wells (Corning Costar). Plates were incubated at 37° C. and read after 20-24 h. MIC was defined as the lowest drug concentration causing complete suppression of visible bacterial growth. All compounds were dissolved in (5% v/v DMSO).
All natural aminoacids have been divided into three groups based on their chemical-physical properties. A total amount of 27 minilibraries, each one containing six peptide in equimolar amounts, were obtained and assayed against E. coli ATCC 25922 as reference strain. MIC (Minimum Inhibitory Concentration) is defined as the lowest concentration inhibiting 100% of visible growth.
In general terms: Broth dilution looks for growth in wells or tubes with falling amounts of substance.

In the next data set the test system is Escherichia coli. The class given is cell-based. The method, then: as §1
(§2) These compounds were tested against a large panel of Gram-negative clinical isolates and the relative MIC values were reported in Table 5 (parts 1-3)

Data set [1] relates to Stenotrophomonas maltophilia. It counts as cell-based. The procedure: as §1, §2
The next data set has as its system Serratia marcescens. The class given is cell-based. The procedure:
as §1, §2

Another data set has as its system Acinetobacter iwoffi. The class given is cell-based. The procedure: as §1, §2
Another data set relates to Proteus mirabilis. It counts as cell-based. The method, then: as §1, §2
The subject of the next data set is Pseudomonas aeruginosa. The class given is cell-based. The procedure: as §1, §2
The test system of another data set is Acinetobacter baumannii. It counts as cell-based. The procedure: as §1, §2
The subject of another data set is Klebsiella oxytoca. It counts as cell-based. The procedure:
as §1, §2

The test system of a further data set is Enterobacter cloacae. It counts as cell-based. The method, then:
as §1, §2

Another data set deals with Klebsiella pneumoniae. The class given is cell-based. The method, then: as §1, §2
Data set [2] relates to Klebsiella pneumoniae ATCC 10031. Briefly: MIC by broth microdilution, K. pneumoniae reference strain. The class given is cell-based. The procedure:
as §1
(§3) These peptides were synthesized individually, in order to assay the activity of each sequence.

For data set [3], the system named is Pseudomonas aeruginosa ATCC 27853. The experiment in a line: MIC by broth microdilution, P. aeruginosa reference strain. It counts as cell-based. The procedure:
as §1, §3

In the next data set the test system is Shigella. Briefly: MIC vs clinical isolates, Shigella. The class given is cell-based. The following applies: Shigella strain ND024108. The procedure: as §1, §2
For data set [4], the system named is Staphylococcus aureus ATCC 25923. The procedure:
as §1, §3

The test system of another data set is whole blood. It counts as cell-based. The procedure:
Whole blood was collected in a sterile tube with a 4% w/v sodium citrate solution (in a 1:10 ratio sodium citrate:whole blood) and conserved in ice. Serial dilutions of ID24 (1 mg/mL to 62.5 ug/mL) were added to whole blood in a ratio 1:1 or 1:10. The haemolytic potential was expressed relative to saponine, added in the same ratio, considered as 100% haemolysis. The negative control was whole blood in physiologic solution, which gave minimal lysis. 100 uL aliquots of each suspension were added in sterile 96-well microtiter plates (Nunc) in triplicate. The plates were incubated at 37° C. for 30 minutes.
Subsequently, the suspension were pelletted by centrifugation at 1000 g for 10 minutes at 4° C. One hundred microliters of supernatant from each well was transferred accordingly to a new 96-well microtiter plate, and the amount of haemoglobin released into the supernatant was determined by reading the absorbance at 560 nm.
In Table 8, haemolysis percentages of different amounts of ID24 in a 1:1 ratio with whole blood are listed, while in Table 9 haemolysis percentages of different amounts of ID24 in a 1:10 ratio with whole blood are reported. The amount of haemoglobin released into the supernatant was determined by reading the absorbance at 560 nm.

In the case of `CC[C@H](C)[C@H](NC(=O)[C@H](CCCCN)NC(=O)[C@H](CCCCN)NC(=O)[C@@H](N)Cc1c[nH]c2ccccc12)C(=O)N[C@@H](CCCNC(=N)N)C(=O)N[C@H](C(=O)N[C@@H](CCCNC(=N)N)C(=O)N[C@@H](CC(C)C)C(=O)N[C@@H](CO)C(=O)N[C@@H](C)C(=O)NCCCC[C@H](NC(=O)[C@H](C)NC(=O)[C@H](CO)NC(=O)[C@H](CC(C)C)NC(=O)[C@H](CCCNC(=N)N)NC(=O)[C@@H](NC(=O)[C@H](CCCNC(=N)N)NC(=O)[C@@H](NC(=O)[C@H](CCCCN)NC(=O)[C@H](CCCCN)NC(=O)[C@@H](N)Cc1c[nH]c2ccccc12)[C@@H](C)CC)C(C)C)C(=O)NCCC(N)=O)C(C)C` [ID18, (H-W-KKIRVRLSA)2-Lys-β-Ala-NH2] (I: H-WKKIRVRLSAK[βAla]-NH2 / II: H-WKKIRVRLSA; amide I:11-II:C), in the data set with E. coli ATCC 25922 (Table 4), the “MIC (ug/mL) E. coli” value was determined as 4 µg/mL (≈ 1.49 µM). Moreover, the “MIC Range” value is 2 to 32 mg/L against Escherichia coli; 8 to 32 mg/L in data set [1]; more than 128 mg/L against Proteus mirabilis; 8 to 16 mg/L against Pseudomonas aeruginosa; 8 to 16 mg/L in the data set with Acinetobacter baumannii; 32 mg/L (≈ 11.9 µM) against Klebsiella oxytoca. The entries for the “MIC Range” value against Enterobacter cloacae and in the data set on Klebsiella pneumoniae were 4 to 32 mg/L and 4 to 16 mg/L, respectively. The minimal inhibitory concentration (MIC) against Serratia marcescens was more than 128 mg/L; against Acinetobacter iwoffi, 16 mg/L (≈ 5.94 µM); with Proteus mirabilis, more than 128 mg/L; against Klebsiella oxytoca, 32 mg/L (≈ 11.9 µM); with Shigella, 4 mg/L (≈ 1.49 µM). For the same compound, the “MIC (ug/mL) K. pneumoniae” value in [2] (Table 4) was found to be 32 µg/mL (≈ 11.9 µM). Also, in data set [3] (Table 4), the “MIC (ug/mL) P. aeruginosa” value worked out at 32 µg/mL (≈ 11.9 µM).
As to “H-QIKIRVRLSA-OH [ID9, H-Q-I-KIRVRLSA-OH]”, the “MIC (ug/mL) E. coli” value against E. coli ATCC 25922 (ATCC 25922) was 512 µg/mL. Further, the “MIC (ug/mL) K. pneumoniae” value in data set [2] (ATCC 10031) is 512 µg/mL. Besides, the “MIC (ug/mL) P. aeruginosa” value in [3] (ATCC 27853) was more than 512 µg/mL. Further, in data set [4], the “MIC (ug/mL) S. aureus” value was more than 512 µg/mL.
Turning to saponine, in the data set on whole blood, the Haemolysis % was found to be 100% and the “Haemolysis, %” value is given as 100%.
For H-WKKIRVRLSA-OH [ID6, H-W-KKIRVRLSA-OH], the “MIC (ug/mL) E. coli” value against E. coli ATCC 25922 (ATCC 25922) was 64 to 128 µg/mL. In data set [2] (ATCC 10031), the “MIC (ug/mL) K. pneumoniae” value came to 256 µg/mL. Further, the “MIC (ug/mL) P. aeruginosa” value in data set [3] (ATCC 27853) came out at 128 µg/mL. For the same compound, the “MIC (ug/mL) S. aureus” value in data set [4] amounted to 512 µg/mL.
The like results for H-VKKIRVRLSA-OH [ID5, H-V-KKIRVRLSA-OH] were, in that order, 512 µg/mL, more than 512 µg/mL, 512 µg/mL and 512 µg/mL.
In the same order, the values of “H-QFKIRVRLSA-OH [ID8, H-Q-F-KIRVRLSA-OH]” are 128 µg/mL, more than 512 µg/mL, 128 µg/mL and more than 512 µg/mL.

In general, MIC refers to the smallest concentration in the dilution series that meets the test's criterion for growth inhibition. Low readings indicate inhibition by little substance, high ones a need for much substance.
